Experimental data reported in patent US20110183969A1, “ANTIFUNGAL COMBINATION THERAPY” (priority 2008, published 2011).
In brackets after ≈: the same amount, converted by molar mass. Like-named read-outs stand apart in the source and are kept apart here.

How the values were obtained:
Test in all cases: MIC (YAG medium)
Assay type in all cases: cell-based
Aspergillus terreus AT4 = details: for MIC: Aspergillus terreus
Protocol: (§1) Between 1 and 5 mgs of compound were accurately weighed out into a sterile Eppendorf tube. The compound was dissolved in DMSO to give a solution containing 5 mg/mL. Tubes were stored at −20° C. until required.
(§2) On the day of testing thawed solutions were vortex mixed to ensure homogeneity. 30 μL of solution was removed and added to 570 μL of sterile water in a separate sterile Eppendorf The thoroughly mixed solution was used to prepare a series of doubling dilutions in water, in a deep well plate. […] replicate plates were prepared using a Minitrak by aspirating 20 μL from each well into eleven clear polystyrene 96 well plates.
(§3) Spores of Aspergillus spp. (Aspergillus fumigatus [two strains], Aspergillus terreus [two strains], Aspergillus niger and Aspergillus flavus) were harvested from cultures grown on Sabarauds agar for 5 days, and resuspended in PBS/Tween 80 to approx 1×10^7 cfu/mL. Other filamentous fungi (Absidia corymbifera, Fusarium solani, Rhizomucor, Scedosporium spp., Trichophyton spp.), were grown on Sabarauds agar for 2-10 days and spores/hyphae resuspended in PBS/Tween to give approx 1×10^7 cfu/mL. Candida species (Candida albicans, Candida glabrata, Candida krusei, Candida parapsilosis and Candida tropicalis) were grown on Sabarauds agar, cells were harvested from the agar using a sterile loop and resuspended in PBS/Tween 80 to approx 1×10^6 cfu/mL. Each organism suspension was diluted in RPMI medium, containing 2% glucose and 0.135 M MOPS buffer (pH 7.0) to 0.5−2×10^4 cfu/mL for Aspergillus spp. and other filamentous fungi and 0.5-2×10^3 cfu/mL for yeast. 80 μL of an organism suspension was added to each well of the plate containing drug dilutions.
(§4) This produced MIC plates with a drug range 50-0.05 mg/L and organism inocula of 1-2×10^4 cfu/mL for Aspergillus spp. and other filamentous fungi and 1-2×10^3 cfu/mL for yeasts. All plates were incubated for 24-48 hrs at 35° C. Growth was assessed by monitoring the optical density at 485 nm for each well. The MIC of a compound is the lowest drug concentration that inhibits growth of an organism by >80% compared with a drug free control. MICs are recorded as mg/L. Other growth media can be used for susceptibility testing, and the activity of the described compounds can also be assessed in a medium comprising 1% glucose, 1% ammonium chloride and 0.5% yeast extract (YAG medium). To perform MIC tests in this medium, dilutions of compounds are prepared in microtitre plates as described above. Fungal strains to be tested are grown and harvested in an identical manner to that described above, each organism suspension is then diluted in YAG medium to 0.5-2×10^4 cfu/mL for Aspergillus spp. and other filamentous fungi and 0.5-2×10^3 cfu/mL for yeast. 80 μL of an organism suspension was added to each well of the plate containing drug dilutions. This produced MIC plates with a drug range 50-0.05 mg/L and organism inocula of 1-2×10^4 cfu/mL for Aspergillus spp. and other filamentous fungi and 1-2×10^3 cfu/mL for yeasts. All plates were incubated for 24 hrs at 35° C. Growth was assessed by monitoring the optical density at 485 nm for each well. The MIC of a compound is the lowest drug concentration that inhibits growth of an organism by >70% compared with a drug free control. MICs are recorded as mg/L. In cases where the MIC of an organism is […] mg/L the MIC is repeated using a concentration range of 0.5-0.0005 mg/L. MIC tests in YAG medium have more clear-cut endpoints and have slightly lower MICs than those performed in RPMI medium.
(§5) The following organisms were tested: Absidia corymbifera, Aspergillus flavus, Aspergillus fumigatus AF293 and AF210, Aspergillus niger, Aspergillus terreus AT4 and AT49, Candida albicans, Candida glabrata, Candida krusei, Candida parapsilosis, Candida tropicalis, Fusarium solani, Rhizomucor sp., Scedosporium apiospermum, Scedosporium prolificans, Trichophyton mentagrophytes, and Trichophyton rubrum.

Aspergillus terreus AT49 = details: for MIC: Aspergillus terreus
Protocol: as §1, §2, §3, §4, §5

[1] = system: Aspergillus fumigatus AF210; details: for MIC: Aspergillus fumigatus
Protocol: as §1, §2, §3, §4, §5

[2] = system: Aspergillus fumigatus AF293; details: for MIC: Aspergillus fumigatus
Protocol: as §1, §2, §3, §4, §5

Aspergillus flavus = details: for MIC: Aspergillus flavus, read-out: MIC A. flavus (grade)
Protocol: as §1, §2, §3, §4, §5

Aspergillus niger = details: for MIC: Aspergillus niger, read-out: MIC A. niger (grade)
Protocol: as §1, §2, §3, §4, §5

[3] = YAG medium, MIC banded into grades, AT4, read-out: MIC A. terreus (grade)
[4] = YAG medium, MIC banded into grades, AT49, read-out: MIC A. terreus 49 (grade)
[5] = YAG medium, MIC banded into grades, AF210, read-out: MIC A. fumigatus 210 (grade)
[6] = YAG medium, MIC banded into grades, AF293, read-out: MIC A. fumigatus (grade)
[7] = YAG medium, MIC banded into grades

Row | Compound | MIC (Aspergillus terreus AT4; [3]) [µg/mL] | MIC (Aspergillus terreus AT49; [4]) [µg/mL] | MIC [1, 5] [µg/mL] | MIC [2, 6] [µg/mL] | MIC (Aspergillus flavus; [7]) [µg/mL] | MIC (Aspergillus niger; [7]) [µg/mL] | other results
1 | Cc1nccn1CCCOc1ccc(NC(=O)C(=O)c2c(-c3ccccc3)cc3ccccn23)cc1C(C)C [Example 20, N-{3-Isopropyl-4-[3-(2-methyl-imidazol-1-yl)-propoxy]-phenyl}-2-oxo-2-(2-phenyl-indolizin-3-yl)-acetamide] | 1 to 10 (≈ 1.92 to 19.2 µM) | < 1 | 1 to 10 (≈ 1.92 to 19.2 µM) | 1 to 10 (≈ 1.92 to 19.2 µM) | < 1 | > 10 | –
2 | Cc1ccnc(N2CCN(c3ccc(NC(=O)C(=O)c4c(-c5ccccc5)cc5ccccn45)cc3)CC2)c1 [Example 49, N-{4-[4-(4-Methyl-pyridin-2-yl)-piperazin-1-yl]-phenyl}-2-oxo-2-(2-phenyl-indolizin-3-yl)-acetamide] | < 1 | < 1 | < 1 | < 1 | < 1 | < 1 | –
3 | CC(C)c1nc(C(C)(C)c2cccc(NC(=O)C(=O)c3c(-c4ccccc4)cc4ccccn34)c2)cn1C [Example 14, N-{3-[1-(2-Isopropyl-1-methyl-1H-imidazol-4-yl)-1-methyl-ethyl]-phenyl}-2-oxo-2-(2-phenyl-indolizin-3-yl)-acetamide] | 1 to 10 (≈ 1.98 to 19.8 µM) | 1 to 10 (≈ 1.98 to 19.8 µM) | > 10 | > 10 | 1 to 10 (≈ 1.98 to 19.8 µM) | > 10 | –
4 | Cc1cc(C)nc(N2CCN(c3ccc(NC(=O)C(=O)c4c(C5CCCC5)cc5ccccn45)cc3)CC2)c1 [Example 47, 2-(2-Cyclopentyl-indolizin-3-yl)-N-{4-[4-(4,6-dimethyl-pyridin-2-yl)-piperazin-1-yl]-phenyl}-2-oxo-acetamide] | < 1 | < 1 | < 1 | < 1 | < 1 | < 1 | –
5 | Cc1cc(C)nc(CNc2ccc(NC(=O)C(=O)c3c(-c4ccccc4)cc4ccccn34)cc2)c1 [Example 91, N-{4-[(4,6-Dimethyl-pyridin-2-ylmethyl)-amino]-phenyl}-2-oxo-2-(2-phenyl-indolizin-3-yl)-acetamide] | < 1 | < 1 | < 1 | < 1 | < 1 | < 1 | –
6 | O=C(Nc1ccc(N2CCN(CC3CCOCC3)CC2)cc1)C(=O)c1c(-c2ccccc2)cc2ccc(F)cn12 [Example 53, 2-(6-Fluoro-2-phenyl-indolizin-3-yl)-2-oxo-N-{4-[4-(tetrahydro-pyran-4-ylmethyl)-piperazin-1-yl]-phenyl}-acetamide] | 1 to 10 (≈ 1.85 to 18.5 µM) | 1 to 10 (≈ 1.85 to 18.5 µM) | 1 to 10 (≈ 1.85 to 18.5 µM) | 1 to 10 (≈ 1.85 to 18.5 µM) | 1 to 10 (≈ 1.85 to 18.5 µM) | > 10 | –
7 | COCCN(C)c1ccc(N2CCN(c3ccc(NC(=O)C(=O)c4c(-c5ccccc5)cc5ccccn45)cc3)CC2)cn1 [Example 68, N-[4-(4-{6-[(2-Methoxy-ethyl)-methyl-amino]-pyridin-3-yl}-piperazin-1-yl)-phenyl]-2-oxo-2-(2-phenyl-indolizin-3-yl)-acetamide] | < 1 | < 1 | < 1 | < 1 | < 1 | < 1 | –
8 | O=C(Nc1ccc(N2CCC(N3CCOCC3)CC2)cc1)C(=O)c1c(-c2ccccc2Cl)cc2ccccn12 [Example 26, 2-[2-(2-Chloro-phenyl)-indolizin-3-yl]-N-[4-(4-morpholin-4-yl-piperidin-1-yl)-phenyl]-2-oxo-acetamide] | 1 to 10 (≈ 1.84 to 18.4 µM) | < 1 | < 1 | 1 to 10 (≈ 1.84 to 18.4 µM) | < 1 | 1 to 10 (≈ 1.84 to 18.4 µM) | –
9 | Cc1cc(C)nc(N2CCN(c3ccc(NC(=O)C(=O)c4c(C5CC5)cc5ccccn45)cc3)CC2)c1 [Example 58, 2-(2-Cyclopropyl-indolizin-3-yl)-N-{4-[4-(4,6-dimethyl-pyridin-2-yl)-piperazin-1-yl]-phenyl}-2-oxo-acetamide] | < 1 | < 1 | < 1 | < 1 | < 1 | < 1 | –
10 | O=C(Nc1ccc(N2CCN(c3cccnc3)CC2)cc1)C(=O)c1c(-c2ccccc2)cc2ccccn12 [Example 59, 2-Oxo-2-(2-phenyl-indolizin-3-yl)-N-[4-(4-pyridin-3-yl-piperazin-1-yl)-phenyl]-acetamide] | < 1 | < 1 | < 1 | < 1 | < 1 | < 1 | –
11 | Cc1ccc(N2CCN(c3ccc(NC(=O)C(=O)c4c(-c5ccccc5)cc5ccccn45)cc3)CC2)nc1 [Example 74, N-{4-[4-(5-Methyl-pyridin-2-yl)-piperazin-1-yl]-phenyl}-2-oxo-2-(2-phenyl-indolizin-3-yl)-acetamide] | < 1 | < 1 | < 1 | < 1 | < 1 | < 1 | –
12 | Cc1cc(C)nc(N2CCCN(c3ccc(NC(=O)C(=O)c4c(-c5ccccc5)cc5ccccn45)cc3)CC2)c1 [Example 54, N-{4-[4-(4,6-Dimethyl-pyridin-2-yl)-[1,4]diazepan-1-yl]-phenyl}-2-oxo-2-(2-phenyl-indolizin-3-yl)-acetamide] | < 1 | < 1 | < 1 | < 1 | < 1 | < 1 | –
13 | 2-Oxo-2-(2-phenyl-indolizin-3-yl)-N-{4-[4-(2-pyridin-yl-ethyl)-perazin-1-yl]-phenyl}-acetamide [Example 36] | – | – | – | – | – | – | MIC A. terreus (grade) (Aspergillus terreus AT4; YAG medium, MIC banded into grades, AT4): 3 (A grade of 3 represents an MIC of less than 1 mg/L); MIC A. terreus 49 (grade) (Aspergillus terreus AT49; YAG medium, MIC banded into grades, AT49): 3 (A grade of 3 represents an MIC of less than 1 mg/L); MIC A. fumigatus 210 (grade) ([1]; YAG medium, MIC banded into grades, AF210): 3 (A grade of 3 represents an MIC of less than 1 mg/L); MIC A. fumigatus (grade) ([2]; YAG medium, MIC banded into grades, AF293): 3 (A grade of 3 represents an MIC of less than 1 mg/L); MIC A. flavus (grade) (Aspergillus flavus; [7]): 3 (A grade of 3 represents an MIC of less than 1 mg/L); MIC A. niger (grade) (Aspergillus niger; [7]): 3 (A grade of 3 represents an MIC of less than 1 mg/L)
14 | O=C1Cc2cc(NC(=O)C(=O)c3c(-c4ccccc4)cc4ccccn34)ccc2N1 [Example 9, 2-Oxo-N-(2-oxo-2,3-dihydro-1H-indol-5-yl)-2-(2-phenyl-indolizin-3-yl)-acetamide] | – | – | – | – | – | – | MIC (Aspergillus terreus AT4; AT4, read-out: MIC A. terreus (grade)): > 10 µg/mL; MIC (Aspergillus terreus AT49; AT49, read-out: MIC A. terreus 49 (grade)): > 10 µg/mL; MIC ([1]; AF210, read-out: MIC A. fumigatus 210 (grade)): > 10 µg/mL; MIC ([2]; AF293, read-out: MIC A. fumigatus (grade)): > 10 µg/mL; MIC (Aspergillus flavus): > 10 µg/mL; MIC (Aspergillus niger): > 10 µg/mL
15 | Cc1cc(C)nc(NCCNc2ccc(NC(=O)C(=O)c3c(-c4ccccc4)cc4ccccn34)cc2)c1 [Example 92, N-{4-[2-(4,6-dimethyl-pyridin-2-yl-amino)-ethylamino]-phenyl}-2-oxo-2-(2-phenyl-indolizin-3-yl)-acetamide] | < 1 | < 1 | < 1 | < 1 | < 1 | 1 to 10 (≈ 1.99 to 19.9 µM) | –
